Data from US20240365736A1, “COMPOSITIONS AND METHODS FOR TARGETED DEGRADATION OF PROTEINS IN A PLANT CELL” (Oerth Bio LLC, priority 2021, published 2024).
Read-outs that look alike come from different tables or passages of the source.

Experiments:
[1] = tested on: Matricaria recutita, Diplotaxis tenuifolia, Agrostis spp., Poa annua, or Arabidopsis thaliana; assay: Plant phenotyping assay (herbicidal phenotypes, 96-well plates); type: in vivo; settings: visual score of herbicidal phenotypes after seven days; 238, 475, 950, and 1900 g ai/ha (50-400 uM); also: key: '+++' is highly active; '++' is moderately active; '+' is weakly active; '−' is inactive
[2] = Uptake in plant cells: LCMS quantification in treated Abutilon leaves and leaf washings; type: in vivo; settings: for concentration at 24 h: Abutilon (plant), topical, 10 μL of 400 μM formulation per leaf
Method: Abutilon plants were sown in 3 inch pots and allowed to germinate and reach the two leaf stage. At the two leaf stage, plants were separated into groups of 8 plants and had one of their first true leaves labeled with a black marker. Formulation treatment samples were prepared using the following protocol. All treatment samples were prepared to 400 μM. Just before treatment, samples were emulsified and 10 μL of formulated compound was pipetted onto leaves marked for treatment in small droplets evenly across the leaf surface. Once all leaves were treated, they were allowed to sit undisturbed in a growth chamber for 24 hours. After 24 hours plants were removed from the chamber for sample collection.
Using clean scissors treated leaves were removed from the plants, and washed in 20 mL of LCMS grade acetonitrile. A sample of the wash solution was collected and set aside for analysis. The washed leaves were then stored in 7 mL centrifuge tubes and set aside. 8 treated leaves from a grouping were stored in the same sample tube. The untreated leaves were collected and stored in separate 7 mL tubes. The same was done with new growth.
The samples were stored in a −80° C. freezer for 24 hours before milling. Fresh stock of 80:20 LCMS grade acetonitrile and water was prepared as a milling solution. 3 to 4 ceramic milling beads were added to each tube along with 300 μL of milling solution. Tubes were sealed and put into a benchtop homogenizer. Samples were milled for two 12 second intervals at maximum speed with a 30 second rest period in between. Samples were then moved to a 4° C. centrifuge where they were centrifuged at 15000 rpm for 6 minutes. Supernatant was collected and put into 2 mL microcentrifuge tubes. […]
Samples were run with injections of 10 μL. Data was analyzed and calibration curves were built for known samples, using area under the curve for [M+H]. Unknown concentrations were calculated with the calibration curves to determine the amount of PROTAC® compound present at 24 hours in treated leaves and in the leaf washings.

With `COc1cnc(OC)n2nc(NS(=O)(=O)c3c(OCCOCCOCCOCCOCCOCCOc4ccc5c(c4)C(=O)N(C4CCC(=O)NC4=O)C5=O)cccc3C(F)(F)F)nc12` (stereo not shown) [Compound 4-B, N-(5,8-Dimethoxy-[1,2,4]triazolo[1,5-c]pyrimidin-2-yl)-2-((17-((2-(2,6-dioxopiperidin-3-yl)-1,3-dioxoisoindolin-5-yl)oxy)-3,6,9,12,15-pentaoxaheptadecyl)oxy)-6-(trifluoromethyl)benzenesulfonamide] as the compound, how does the “Plant Activity” value [1] read?
Its value is “+++”.

What about the concentration at 24 h ([2]; leaf wash (20 mL acetonitrile), wash of treated Abutilon leaves in 20 mL acetonitrile, 24 hours after treatment, read-out: Average Concentration μM (leaf wash)) of the same compound?
The concentration at 24 h was 0.342 µM.

What about the concentration at 24 h ([2]; treated leaves (milled extract supernatant), Abutilon treated leaves, 24 hours after 10 μL of 400 μM formulated compound on leaf, read-out: Average Concentration μM (treated leaves)) of the same compound?
Its concentration at 24 h is 0.491 µM.

And the Uptake by leaves ([2]; Abutilon leaves, 24 hours)?
Its Uptake by leaves is “effectively taken up by leaves”.
